Measurements taken from patent US8153589B2, “JNK3 as a target for the treatment of angiogenesis-related diseases” (The University of North Carolina at Chapel Hill, priority 2009, dated 2012).
Where two headings read alike, the source gives them in different places.

Tests used:
MKP7 [1] = molecular target: T1, MKP7 (Homo sapiens, UniProt Q9BY84, C244S); format: biochemical
T1 construct: the mutants of full-length MKP7, MKP7-C244S and MKP7-C244A; expressed in transfected cells; host or cells: HEK293T
T1 sequence (Q9BY84 1-317 C244S): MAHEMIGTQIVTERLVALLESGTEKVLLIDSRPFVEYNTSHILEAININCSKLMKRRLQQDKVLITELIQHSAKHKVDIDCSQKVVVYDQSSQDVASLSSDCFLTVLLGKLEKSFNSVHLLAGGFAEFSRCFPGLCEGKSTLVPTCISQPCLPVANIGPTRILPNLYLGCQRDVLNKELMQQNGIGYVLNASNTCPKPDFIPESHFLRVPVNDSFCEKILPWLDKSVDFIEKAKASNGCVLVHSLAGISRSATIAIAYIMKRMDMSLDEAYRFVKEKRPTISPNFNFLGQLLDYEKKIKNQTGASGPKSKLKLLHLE
Experimental: (§4) Flag-MKP7 protein was prepared from the cells transfected with Flag-MKP7 by immunoprecipitation using Flag beads (Sigma). The precipitate was washed twice with lysis buffer containing high salt (1 M NaCl) followed by 2 washes with the reaction buffer. In vitro phosphatase reactions were carried out at 37° C. for 1 hour in I.V.P.A buffer (20 mM Tris⊕HCl, pH7.0, 0.1 mM MgCl2, 1 mM MnCl2, 1 ┌g/┌1 BSA, 1 mM DTT in reduced samples) with 25 ng active JNK3 purified protein (Upstate). The reaction was stopped by the addition of 2× loading buffer followed by western blotting analysis with phospho-specific JNK and JNK antibodies.
(§5) To determine whether this S-nitrosylation event affected MKP7 activity, we performed an in vitro phosphatase activity analysis using activated JNK3 protein in a reaction with MKP7-concentrated cell lysates. […] The activities of these mutants were also evaluated using an in vitro phosphatase assay.

MKP7 [2] = format: biochemical
Experimental: as §4, §5

MKP7 [3] = molecular target: T1, MKP7; assay: Biotin switch assay, MKP7 S-nitrosylation by NO donors in lysates of transfected HEK293T cells; format: biochemical
Experimental: (§1) Experiments were performed following the methods previously described by Dr. Stamler's laboratory (39). Cell lysates containing Flag or Myc-tagged MKP7 protein were treated with the indicated concentrations of GSNO followed by the addition of 2 volumes of HEN buffer and freshly prepared S-methyl methanethiosulfonate (10% v/v in N,N-dimethylformamide) and SDS (25% v/v) to final concentrations of 0.1 and 2.5%, respectively. Following frequent vortexing at 50° C. for 1 hour, proteins were precipitated with 3 volumes of acetone at −20° C. for 30 min. The proteins were recovered by centrifugation at 5,000×g for 5 min, followed by gentle rinsing of the pellet with 3×1 ml acetone. The pellets were then resuspended in 240 μl of HEN buffer containing 1% SDS. The resuspended protein was precipitated, rinsed and resuspended once more. For labeling, the blocked samples were mixed with 0.1 volume of biotin-HPDP (2.5 mg/ml in Me2SO) and 0.1 volume of HEN (control) or freshly prepared sodium Ascorbic acid in HEN buffer. Labeling reactions were performed in the dark at room temperature for 1 h unless otherwise indicated. To detect an MKP7 SNO protein from cells or lysates, the labeling reaction was acetone-precipitated as previously described. The washed pellet was resuspended in 250 μl of HEN/10 (HEN diluted 10-fold into H2O) containing 1% SDS, followed by addition of 750 μl of neutralization buffer (25 mM HEPES, 100 mM NaCl, 1 mM ETDA, 1% Triton X-100, pH 7.5). This material was incubated overnight at 4° C. with 40 μl of streptavidin-agarose beads. The beads were washed with 3×1 ml of wash buffer (neutralization buffer+500 mM NaCl) and 2×1 ml of neutralization buffer. The dried beads were eluted with 50 μl of HEN/10+1%-mercaptoethanol. The eluted mixture was then analyzed by SDS-PAGE, followed by immunoblotting with anti-Flag-HRP (1:5000) or antibodies.
(§2) The preceding experiments indicate that eNOS and its downstream effector JNK3 are required for SDF-1α-induced endothelial cell migration. However, the molecular mechanisms of eNOS-dependent regulation of JNK3 activity are not intuitive. In the course of exploring various potential regulatory mechanisms, we considered the possibility that regulation of JNK3 by eNOS was determined by suppression of dephosphorylation activities. When cells were incubated with sodium orthovanadate, an inhibitor of protein tyrosine and dual-specificity protein phosphatases, JNK phosphorylation increased both under basal conditions and, most prominently, after SDF-1α treatment (FIG. 3A). […] MKP7, a member of the dual-specificity family of protein phosphatases, interacts with the JNK3 scaffold protein β-arrestin2 (25). Located within the N-terminal catalytic domain of MKP7, the Cys^244 residue is highly sensitive to oxidation due to its low pKa and this oxidation is required for decreased MKP7 activity and sustained activation of JNK3 under certain conditions (26). […] MKP7 S-nitrosylation was also detected with another NO donor-DETA NONOate; the addition of DTT blocked its nitrosylation (data not shown). To further explore the nitrosylation of MKP7 by NO donors, SNOs in MKP7 were replaced with biotin (biotin switch), and peptides generated by trypsinization were purified by avidin chromatography and analyzed by MALDI-TOF and ESI-MS/MS. […]

MKP7 [4] = assay: as above; format: biochemical
Experimental: as §1, §2

BAECs [5] = assay: In vitro Matrigel angiogenesis (tube formation) assay; format: cell-based, bovine; conditions: siRNA-expressing cells
Experimental: Endothelial cell tube formation was analyzed with the Matrigel-based tube formation assay (40, 41). Chilled 24-well plates were coated with growth factor-reduced Matrigel (Becton Dickinson, San Jose, Calif.) that was polymerized at 37° C. for 30 min. BAECs were transfected with siRNA constructs with the Amaxa Nucleofector electroporation reagent. Three days later, cells were trypsinized, and plated at equal numbers into each Matrigel-coated well. After 18 hours of incubation in the absence or presence of SDF-1alpha, the formation of tubes was photographed (Eclipse, 10× objective, TS100Nikon). Images were quantified with ImageJ.
Endothelial cell migration is a critical step for tube formation during angiogenesis. To test the importance of JNK3 in highly ordered cell assembly processes, we examined the effect of JNK knockdown with siRNAs on the formation of capillary-like tubes in Matrigel. BAECs were transfected with JNK1 siRNA, JNK2 siRNA, JNK3 siRNA or control siRNA. After 72 hours, cells were plated on Matrigel in medium containing 50 ng/ml SDF-1α.

JNK3 = assay: JNK activation (phospho-JNK Western blot) in BAECs; format: cell-based, bovine; conditions: for SDF-1α-induced JNK phosphorylation in siRNA-transfected cells: BAECs, 50 ng/ml SDF-1alpha for 10 minutes
Experimental: (§3) Cells were harvested in lysis buffer (1% Triton X-100, 50 mM Tris, pH 7.4, 150 mM NaCl, 1 mM Na3VO4 and 0.1% protease inhibitor tablet; Roche) and clarified by centrifugation at 16,000 g. Equal amounts of proteins were incubated with a specific antibody overnight at 4° C. with gentle rotation. Protein A/G Plus-agarose beads (Santa Cruz Biotechnology, Santa Cruz, Calif.) were used to pull down the antibody complexes. Afterward, beads were washed with lysis buffer, and immune complexes were separated by SDS-PAGE. Total cell lysates were separated by SDS-PAGE and transferred to nitrocellulose membranes.
Mitogen-activated protein kinases (MAPKs), including ERK1/2 and p38, have been reported to enhance angiogenesis (20, 21). However, the role of JNK in angiogenesis remains controversial, with studies showing both positive and negative outcomes of JNK activation. In order to determine which MAPKs are involved in SDF-1α-induced endothelial cell migration, we screened the activities and expression levels of ERK1/2, p38 and JNK following treatment of BAECs with SDF-1α. […] SDF-1α activated both JNK and ERK1/2 in a dose-dependent manner (FIG. 2B). […] Protein and mRNA for all three JNK isoforms, JNK1, JNK2 and JNK3, can be found in BAECs (FIGS. 5, A&B). In order to determine which JNK protein(s) was activated by SDF-1α in these cells we used a previously described assay (22). Exogenous JNK1, JNK2 and JNK3 proteins containing Flag or GFP-epitopes were transiently expressed in BAECs and their activities were determined via western blotting with a phospho-JNK antibody following SDF-1α treatment. […] To confirm the finding that JNK3 is the only JNK entity activated by SDF-1α, we transfected cells with siRNAs for each of the JNK proteins and then tested the effect of each siRNA for the ability to suppress SDF-1α-induced JNK activation. […] Because JNK3 was the only SDF-1α-activated JNK in endothelial cells in our studies (FIG. 2C & FIG. 5, C), we consider the phospho-JNK signals in western blots with anti-phospho-JNK antibody as the signals for activated JNK3.

BAECs [6] = assay: Boyden chamber migration assay; format: cell-based, bovine
Experimental: Boyden chamber assays were performed as previously described (40, 41) using a 48-well chamber apparatus (NeuroProbe, Cabin John, Md.). The lower chambers of the apparatus were filled with DMEM with or without SDF-1alpha and then covered with the collagen-coated filter and the upper chambers. Cells pretreated with or without the indicated inhibitors were then added to the upper chambers. After incubating for 6 h at 37° C., cells present on the lower surface were fixed, stained and identified with the 40× objective lens on a Nikon Eclipse TS 100 inverted microscope.
To determine whether eNOS activation is required for SDF-1α-mediated endothelial cell migration, we performed scratch-wound healing and Boyden chamber migration assays in the presence of the NOS-specific inhibitor L-NMMA (19). Confluent BAECs were pretreated for one hour with 1 mM or 5 mM L-NMMA or vehicle prior to each assay. […] Endothelial cells were transfected with 1 of 3 different bovine eNOS-specific siRNAs, or mixture of all three, and 72 hours later cell lysates were examined by western blot analysis for levels of eNOS protein.

BAECs [7] = assay: Scratch wound healing assay; format: cell-based, bovine; conditions: L-NMMA pretreatment (1 mM or 5 mM, one hour) plus 50 ng/ml SDF-1alpha
Experimental: For detection of cell migration, a wound healing assay was performed as previously described (40). BAECs were grown on 35 mm wells, the monolayer was scratched with a sterile disposable rubber policeman and the edge labeled with a traced line. After injury, the cells were gently washed with normal media without serum. EC migration from the edge of the injured monolayer was quantified by measuring the area between the wound edges before and the recovered area after injury using light microscopy (Eclipse TS100, 4× objective, Nikon) and the computer program ImageJ.
To determine whether eNOS activation is required for SDF-1α-mediated endothelial cell migration, we performed scratch-wound healing and Boyden chamber migration assays in the presence of the NOS-specific inhibitor L-NMMA (19). Confluent BAECs were pretreated for one hour with 1 mM or 5 mM L-NMMA or vehicle prior to each assay. […] Similarly, cell migration in Boyden chambers was induced by SDF-1α (from 8±3 to 86±5 cells per field), but this increase in migration was inhibited by the pre-incubation of BAECs with L-NMMA (FIG. 1D). The involvement of eNOS in SDF-1α-induced endothelial cell migration was confirmed by treatment of cells with siRNAs specific for eNOS. […]

ERK1/2 = ERK1/2 activation, Western blot in BAECs; format: cell-based, bovine; conditions: L-NMMA, SDF-1α-treated BAECs
Experimental: as §3
Mitogen-activated protein kinases (MAPKs), including ERK1/2 and p38, have been reported to enhance angiogenesis (20, 21). However, the role of JNK in angiogenesis remains controversial, with studies showing both positive and negative outcomes of JNK activation. In order to determine which MAPKs are involved in SDF-1α-induced endothelial cell migration, we screened the activities and expression levels of ERK1/2, p38 and JNK following treatment of BAECs with SDF-1α. […] SDF-1α activated both JNK and ERK1/2 in a dose-dependent manner (FIG. 2B). […] Exogenous JNK1, JNK2 and JNK3 proteins containing Flag or GFP-epitopes were transiently expressed in BAECs and their activities were determined via western blotting with a phospho-JNK antibody following SDF-1α treatment. […]

[8] = Myc-MKP7, GSNO 500 μM, 10 minutes

## N[C@@H](CCC(=O)N[C@@H](CSN=O)C(=O)NCC(=O)O)C(=O)O [GSNO, nitrosoglutathione]
MKP7 [1]
  phosphatase activity of MKP7-ΔC (C244S): essentially unchanged
MKP7 [2]
  MKP7 phosphatase activity: markedly inhibited
  phosphatase activity of MKP7-WT and MKP7-ΔC: decreased dramatically
MKP7 [3]
  nitrosylation of MKP7-ΔC (C244S) compared to MKP7-ΔC: markedly attenuated
MKP7 [4]
  S-nitrosylation of MKP7: S-nitrosylated
  nitrosylation of MKP7-WT and MKP7-ΔC: strongly nitrosylated

## JNK2 siRNA: AGUUGAGUCU GCCACUUGUACACUG (SEQ ID NO:5) (AGUUGAGUCUGCCACUUGUACACUG; listed as RNA, chemistry not given here)
BAECs [5]; with 50 ng/ml SDF-1α
  tube length: 504±93 μm
BAECs [5]; without SDF-1α
  tube length: 121±61 μm
JNK3
  SDF-1α-induced JNK phosphorylation in siRNA-transfected cells: significantly enhanced

## NCCN(CCN)/[N+]([O-])=N/O [DETA NONOate]
MKP7 [4]; [8]
  S-nitrosylation of MKP7: detected

## JNK1 siRNA: AUAACAAAUCCCUUGCCUGACUGGC (SEQ ID NO:4) (listed as RNA, chemistry not given here)
BAECs [5]; with 50 ng/ml SDF-1α
  tube length: 438±108 μm
BAECs [5]; without SDF-1α
  tube length: 88±23 μm
JNK3
  SDF-1α-induced JNK phosphorylation in siRNA-transfected cells: significantly enhanced

## O[C@@H](CS)[C@@H](O)CS [DTT]
MKP7 [4]; [8]
  S-nitrosylation of MKP7: blocked

## Oc1c2ccccc2c2c3c(cccc13)N=N2 [SP600125]
BAECs [6]; 10 μM SP600125, 50 ng/ml SDF-1alpha
  SDF-1α-mediated endothelial cell migration: 27±3 cells
BAECs [6]; 50 μM SP600125, 50 ng/ml SDF-1alpha
  SDF-1α-mediated endothelial cell migration: 20±2 cells

## [Na+].[Na+].[Na+].[O]=[V]([O-])([O-])[O-] [sodium orthovanadate, reference compound]
JNK3; Na3VO4 10, 100, 500 μM, basal and after 50 ng/ml SDF-1α
  JNK phosphorylation: increased

## N#CC(=C(/N)Sc1ccccc1N)/C(C#N)=C(\N)Sc1ccccc1N [U0126]
BAECs [6]; 20 μM U0126 (data not shown)
  endothelial cell migration induced by SDF-1α: decreased

## CNC(=N)NCCC[C@H](N)C(=O)O [L-NMMA, reference compound]
BAECs [6]; pre-incubation with L-NMMA, 50 ng/ml SDF-1alpha
  SDF-1α-induced increase in migration in Boyden chambers: inhibited
BAECs [7]
  BAEC migration towards the wounded area: 17.7±2.4%
JNK3; 0.5-5 mM L-NMMA, 50 ng/ml SDF-1alpha for 5 minutes
  JNK3 activation induced by SDF-1α: specifically inhibited
ERK1/2
  ERK activation: not affected
